Laboratory results as given in ChEMBL document CHEMBL1201862, “PubChem BioAssay data set” (2004).
Activity calls are given as the source filed them.

How the values were obtained:
[1] = target: Voltage-dependent T-type calcium channel subunit alpha-1H (Homo sapiens, UniProt O95180); format: functional;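 also: channel activity triggered by adding a high calcium stimulation buffer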
INS1 = assay: beta cell apoptosis inhibitors, cytokine rescue, dose response, luminescence, retest (AID 449756); format: functional, cell-based; conditions: Rattus norvegicus;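 also: cell death triggered by IL-1 beta plus TNF-alpha plus IFN-gamma mixture; protective hits raise ATP signal compared with cytokine alone wells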
[2] = HEp-2 cell cytotoxicity, dose response, cytotoxicity control for RSV inhibitor project, HTS (AID 2410); format: functional; conditions: human respiratory syncytial virus
Aminopeptidase N = target: T1, Aminopeptidase N (Plasmodium falciparum FcB1/Columbia, UniProt O96935); assay: P. falciparum M1AAP inhibitors, biochemical, fluorogenic H-Leu-NHMec substrate, 1536-well (AID 1445); parameters: species or system Plasmodium falciparum 3D7, 3D7
T1 sequence (O96935 whole entry): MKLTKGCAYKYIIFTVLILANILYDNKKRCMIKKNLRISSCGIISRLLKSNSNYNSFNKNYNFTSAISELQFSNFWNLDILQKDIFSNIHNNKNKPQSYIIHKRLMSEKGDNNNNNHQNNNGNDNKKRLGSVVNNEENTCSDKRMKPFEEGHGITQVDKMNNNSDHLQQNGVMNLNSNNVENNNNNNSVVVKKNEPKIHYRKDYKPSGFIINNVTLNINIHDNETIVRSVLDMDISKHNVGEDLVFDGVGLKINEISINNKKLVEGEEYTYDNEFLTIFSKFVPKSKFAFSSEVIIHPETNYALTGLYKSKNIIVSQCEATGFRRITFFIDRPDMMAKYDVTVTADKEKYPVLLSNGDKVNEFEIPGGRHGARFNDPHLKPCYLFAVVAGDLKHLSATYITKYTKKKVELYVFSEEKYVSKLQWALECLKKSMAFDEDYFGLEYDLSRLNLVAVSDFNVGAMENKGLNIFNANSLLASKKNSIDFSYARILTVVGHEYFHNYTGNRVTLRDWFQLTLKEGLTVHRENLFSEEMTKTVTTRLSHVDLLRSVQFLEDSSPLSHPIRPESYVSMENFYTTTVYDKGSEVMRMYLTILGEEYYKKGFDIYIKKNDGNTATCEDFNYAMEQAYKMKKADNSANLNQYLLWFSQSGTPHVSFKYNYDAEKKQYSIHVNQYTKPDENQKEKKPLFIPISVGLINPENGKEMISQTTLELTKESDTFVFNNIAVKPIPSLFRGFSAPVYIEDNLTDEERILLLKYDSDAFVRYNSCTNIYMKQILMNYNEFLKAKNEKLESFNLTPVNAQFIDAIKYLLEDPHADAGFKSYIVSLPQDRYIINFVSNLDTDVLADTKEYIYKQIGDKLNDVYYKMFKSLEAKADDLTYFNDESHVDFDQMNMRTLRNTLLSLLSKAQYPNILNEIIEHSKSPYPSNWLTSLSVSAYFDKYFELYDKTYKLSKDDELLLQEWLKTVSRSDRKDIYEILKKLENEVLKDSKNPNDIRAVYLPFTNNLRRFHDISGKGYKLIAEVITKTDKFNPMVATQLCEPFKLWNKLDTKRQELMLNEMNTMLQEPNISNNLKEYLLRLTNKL

[3] = target: Glyceraldehyde-3-phosphate dehydrogenase (Homo sapiens, UniProt P04406)
[4] = target: T2, Alkaline phosphatase, tissue-nonspecific isozyme (Homo sapiens, UniProt P05186); assay: human TNAP enzyme inhibitors, SAR follow-up, biochemical, luminescent, dose response (AID 1056)
T2 sequence (P05186 whole entry): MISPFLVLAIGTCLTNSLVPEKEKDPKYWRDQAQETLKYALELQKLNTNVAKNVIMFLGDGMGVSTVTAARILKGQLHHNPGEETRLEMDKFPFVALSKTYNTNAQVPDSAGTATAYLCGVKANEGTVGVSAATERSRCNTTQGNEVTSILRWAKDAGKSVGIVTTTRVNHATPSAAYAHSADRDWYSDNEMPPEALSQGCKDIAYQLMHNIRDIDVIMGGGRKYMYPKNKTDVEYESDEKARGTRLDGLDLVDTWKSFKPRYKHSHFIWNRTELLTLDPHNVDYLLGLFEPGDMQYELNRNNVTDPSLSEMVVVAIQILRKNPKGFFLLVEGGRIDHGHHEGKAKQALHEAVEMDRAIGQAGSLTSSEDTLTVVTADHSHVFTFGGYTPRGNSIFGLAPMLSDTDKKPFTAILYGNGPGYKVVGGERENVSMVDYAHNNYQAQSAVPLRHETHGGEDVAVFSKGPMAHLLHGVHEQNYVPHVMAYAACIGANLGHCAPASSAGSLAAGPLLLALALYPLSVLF

Coagulation factor XII = target: T3, Coagulation factor XII (Homo sapiens, UniProt P00748); format: functional;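 also: activated factor XIIa alpha cleaving a fluorogenic AMC peptide substrate; inhibitor potency from loss of enzyme activity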
T3 sequence (P00748 whole entry): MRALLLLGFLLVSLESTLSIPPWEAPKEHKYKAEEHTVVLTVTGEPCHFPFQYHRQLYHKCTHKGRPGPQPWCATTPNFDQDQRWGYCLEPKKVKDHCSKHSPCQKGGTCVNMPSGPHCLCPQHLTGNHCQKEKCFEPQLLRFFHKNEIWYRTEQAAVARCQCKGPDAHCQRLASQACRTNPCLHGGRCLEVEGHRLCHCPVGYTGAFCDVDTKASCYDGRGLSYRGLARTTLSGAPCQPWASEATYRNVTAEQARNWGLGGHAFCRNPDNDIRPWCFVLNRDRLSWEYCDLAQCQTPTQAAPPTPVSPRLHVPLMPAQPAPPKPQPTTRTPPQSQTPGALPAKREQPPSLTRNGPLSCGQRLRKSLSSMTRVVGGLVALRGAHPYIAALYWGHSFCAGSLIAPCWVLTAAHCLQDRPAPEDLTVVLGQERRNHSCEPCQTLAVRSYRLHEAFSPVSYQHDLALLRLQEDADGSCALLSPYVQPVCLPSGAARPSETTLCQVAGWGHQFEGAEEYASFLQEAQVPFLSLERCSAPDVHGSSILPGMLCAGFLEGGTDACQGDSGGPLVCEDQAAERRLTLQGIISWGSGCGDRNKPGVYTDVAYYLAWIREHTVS

[5] = cytotoxicity in HEK-293T cells, dose response, cytotoxicity control for BCR NF-kB inhibitor project, luminescence, B-cell screen hits (AID 489021); format: functional, cell-based;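 also: HEK-293T cells carrying an NF-kB luciferase reporter; cells exposed to compound for about 14 hours before viability readout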
[6] = target: Peroxisome proliferator-activated receptor gamma/Nuclear receptor coactivator 1 (Homo sapiens, UniProt P37231); assay: (§1) TR-FRET dose response biochemical High Throughput Screening assay for agonists of the steroid receptor coactivator 1 (SRC-1) recruitment by the peroxisome proliferator-activated receptor gamma (PPAR gamma): non-selective agonists. [Related pubchem assays (depositor defined):AID1300, AID1808, AID504735, AID631]; format: protein assay
[7] = target: Peroxisome proliferator-activated receptor gamma/Nuclear receptor coactivator 3 (Homo sapiens, UniProt P37231); assay: as §1, with “3 (SRC-3)” for “1 (SRC-1)”, “assays: 1301 (Confirmation screen.), 1048 (Primary screen.)]” for “assays (depositor defined):AID1300, AID1808, AID504735, AID631]”; format: functional
[8] = target: Peroxisome proliferator-activated receptor gamma/Nuclear receptor coactivator 2 (Homo sapiens, UniProt P37231); assay: TR-FRET dose response biochemical High Throughput Screening assay for agonists of the steroid receptor coactivator 2 (SRC-2) recruitment by the peroxisome proliferator-activated receptor gamma (PPAR gamma): non-selective agonists. [Related pubchem assays: 1297, 1032 ]; format: functional
[9] = target: T4, Luciferin 4-monooxygenase (Photinus pyralis, UniProt P08659); assay: Counter Screen for Luciferase-based Assay Positives. [Related pubchem assays: 620, 618, 411 ]
HT-1080 = assay: cytotoxicity in HT1080 fibrosarcoma cells, cell-based, fluorescence readout (AID 620); format: functional; conditions: Homo sapiens
[10] = target: T4, Luciferin 4-monooxygenase; assay: firefly luciferase enzyme inhibitors, dose response, biochemical, luminescence (AID 1891)
[11] = Luminescence Cell-Based Dose Confirmation HTS to Identify Inhibitors of Platelet Dense Granule Release. [Related pubchem assays: 1663 (Primary HTS), 1678 (Summary of Project)]; format: functional
Prothrombin = Prothrombin (Homo sapiens, UniProt P00734); assay: Thrombin 1536 HTS Dose Response Confirmation. [Related pubchem assays: 1046 (Thrombin 1536 HTS; hits were confirmed in this assay)]; format: functional
[12] = Luminescence-based cell-based high throughput dose response assay to identify activators of the DAF-12 from the parasite S. stercoralis (ssDAF-12).; format: functional
[13] = Luminescence Cell-Based Dose Confirmation HTS to Identify Activators of 5'UTR Stem-Loop Driven Alpha-Synuclein mRNA Translation in H4 Neuroglioblastoma Cells. [Related pubchem assays: 1829 (Project Summary), 1814 (Primary HTS)]; format: functional
[14] = Luminescence Cell-Based Dose Response HTS to Identify Activators of Luciferase Translation or Activity in H4 […] Cells. [Related pubchem assays: 1829 (Project Summary), 1814 (Primary HTS)]; format: functional
H4 = assay: Luminescence Cell-Based Dose Response HTS to Identify Activators of 5'UTR Stem-Loop Driven Prion Protein mRNA Translation in H4 Neuroglioblastoma Cells. [Related pubchem assays: 1829 (Project Summary), 1814 (Primary HTS)]; format: functional; conditions: Homo sapiens
[15] = inhibitors of intracellular T. cruzi replication, confirmation, NIH3T3 host cells, beta-gal luminescence (AID 2044); format: functional, cell-based;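 also: intracellular parasites grown in NIH/3T3 mouse fibroblasts as host cells; luminescent beta-galactosidase reporter signal from transgenic T. cruzi replicating inside host cells; inhibitors lower the luminescence signal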
[16] = cytotoxicity toward NIH3T3 fibroblasts, dose response, counter-screen, cell-based, ATP luminescence, mouse fibroblasts (AID 2010); format: functional;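 also: cells exposed to compound for about 90 hours before reading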
Protein skinhead-1 = target: T5, Protein skinhead-1 (Caenorhabditis elegans, UniProt P34707); format: functional
T5 sequence (P34707 whole entry): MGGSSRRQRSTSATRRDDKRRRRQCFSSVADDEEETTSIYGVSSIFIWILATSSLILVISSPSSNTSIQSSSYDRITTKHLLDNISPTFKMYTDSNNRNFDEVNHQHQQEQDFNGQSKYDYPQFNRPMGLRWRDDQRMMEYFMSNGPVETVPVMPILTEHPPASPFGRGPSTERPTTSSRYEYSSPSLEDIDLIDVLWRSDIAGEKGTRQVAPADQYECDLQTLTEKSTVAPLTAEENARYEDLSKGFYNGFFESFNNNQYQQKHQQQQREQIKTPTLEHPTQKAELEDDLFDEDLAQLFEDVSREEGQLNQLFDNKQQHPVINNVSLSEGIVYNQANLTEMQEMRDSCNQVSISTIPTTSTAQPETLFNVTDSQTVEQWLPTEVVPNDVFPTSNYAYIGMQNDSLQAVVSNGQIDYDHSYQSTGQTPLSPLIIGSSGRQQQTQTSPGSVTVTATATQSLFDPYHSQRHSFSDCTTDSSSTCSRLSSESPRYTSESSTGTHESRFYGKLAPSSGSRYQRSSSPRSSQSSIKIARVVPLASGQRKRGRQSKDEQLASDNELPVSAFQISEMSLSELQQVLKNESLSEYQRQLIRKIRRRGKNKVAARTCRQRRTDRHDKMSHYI

[17] = THP-1 cell cytotoxicity, dose response, cytotoxicity control for non-replicating M. tuberculosis project (AID 489025); format: functional
[18] = HepG2 cell cytotoxicity, dose response, cytotoxicity control for non-replicating M. tuberculosis project (AID 489018); format: functional; conditions: Mycobacterium tuberculosis
[19] = Vero E6 cell cytotoxicity, dose response, cytotoxicity control for non-replicating M. tuberculosis project, secondary assay (AID 492998); format: functional, VeroE6; conditions: Vero C1008

T4 sequence (P08659 whole entry): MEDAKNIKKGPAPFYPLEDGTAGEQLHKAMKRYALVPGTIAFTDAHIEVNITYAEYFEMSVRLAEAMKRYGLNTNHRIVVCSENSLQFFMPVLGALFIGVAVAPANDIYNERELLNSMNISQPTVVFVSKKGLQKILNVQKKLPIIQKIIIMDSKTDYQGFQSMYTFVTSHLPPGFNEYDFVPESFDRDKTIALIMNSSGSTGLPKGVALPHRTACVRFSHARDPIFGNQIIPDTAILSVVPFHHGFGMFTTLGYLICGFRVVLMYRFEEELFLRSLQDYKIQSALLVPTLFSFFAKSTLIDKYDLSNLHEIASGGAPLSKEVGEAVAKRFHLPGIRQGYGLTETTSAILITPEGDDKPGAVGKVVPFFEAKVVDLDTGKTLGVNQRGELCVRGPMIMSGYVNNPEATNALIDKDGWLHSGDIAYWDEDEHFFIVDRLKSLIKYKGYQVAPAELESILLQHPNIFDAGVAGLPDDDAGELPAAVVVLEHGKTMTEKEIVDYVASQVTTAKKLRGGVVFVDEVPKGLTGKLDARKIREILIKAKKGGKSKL
Sequence of Glyceraldehyde-3-phosphate dehydrogenase (P04406 whole entry): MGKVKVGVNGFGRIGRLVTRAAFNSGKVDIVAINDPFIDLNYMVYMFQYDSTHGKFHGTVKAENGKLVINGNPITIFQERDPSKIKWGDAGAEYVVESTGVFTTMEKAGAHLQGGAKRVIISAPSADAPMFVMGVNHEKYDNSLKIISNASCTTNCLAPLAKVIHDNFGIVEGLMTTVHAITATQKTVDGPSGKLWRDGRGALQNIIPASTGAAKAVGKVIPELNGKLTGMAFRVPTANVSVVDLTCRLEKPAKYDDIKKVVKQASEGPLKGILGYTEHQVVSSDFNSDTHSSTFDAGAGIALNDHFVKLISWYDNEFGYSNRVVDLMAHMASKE
Sequence of Peroxisome proliferator-activated receptor gamma/Nuclear receptor coactivator 2 (P37231 whole entry): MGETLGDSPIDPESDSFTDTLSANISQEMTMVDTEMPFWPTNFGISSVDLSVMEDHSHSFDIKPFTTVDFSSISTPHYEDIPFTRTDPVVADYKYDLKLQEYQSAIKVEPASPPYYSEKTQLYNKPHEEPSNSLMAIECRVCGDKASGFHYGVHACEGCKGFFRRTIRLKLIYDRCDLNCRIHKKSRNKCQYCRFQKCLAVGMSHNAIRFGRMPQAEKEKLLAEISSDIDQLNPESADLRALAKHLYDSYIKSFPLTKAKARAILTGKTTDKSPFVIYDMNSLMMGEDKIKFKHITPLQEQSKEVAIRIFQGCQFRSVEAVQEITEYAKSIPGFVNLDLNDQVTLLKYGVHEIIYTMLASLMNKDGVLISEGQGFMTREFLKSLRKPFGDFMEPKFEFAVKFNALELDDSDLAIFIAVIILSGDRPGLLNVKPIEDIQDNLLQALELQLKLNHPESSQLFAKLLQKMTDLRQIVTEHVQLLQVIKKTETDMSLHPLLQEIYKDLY
Sequence of Peroxisome proliferator-activated receptor gamma/Nuclear receptor coactivator 2 (Q15596 whole entry, further chain): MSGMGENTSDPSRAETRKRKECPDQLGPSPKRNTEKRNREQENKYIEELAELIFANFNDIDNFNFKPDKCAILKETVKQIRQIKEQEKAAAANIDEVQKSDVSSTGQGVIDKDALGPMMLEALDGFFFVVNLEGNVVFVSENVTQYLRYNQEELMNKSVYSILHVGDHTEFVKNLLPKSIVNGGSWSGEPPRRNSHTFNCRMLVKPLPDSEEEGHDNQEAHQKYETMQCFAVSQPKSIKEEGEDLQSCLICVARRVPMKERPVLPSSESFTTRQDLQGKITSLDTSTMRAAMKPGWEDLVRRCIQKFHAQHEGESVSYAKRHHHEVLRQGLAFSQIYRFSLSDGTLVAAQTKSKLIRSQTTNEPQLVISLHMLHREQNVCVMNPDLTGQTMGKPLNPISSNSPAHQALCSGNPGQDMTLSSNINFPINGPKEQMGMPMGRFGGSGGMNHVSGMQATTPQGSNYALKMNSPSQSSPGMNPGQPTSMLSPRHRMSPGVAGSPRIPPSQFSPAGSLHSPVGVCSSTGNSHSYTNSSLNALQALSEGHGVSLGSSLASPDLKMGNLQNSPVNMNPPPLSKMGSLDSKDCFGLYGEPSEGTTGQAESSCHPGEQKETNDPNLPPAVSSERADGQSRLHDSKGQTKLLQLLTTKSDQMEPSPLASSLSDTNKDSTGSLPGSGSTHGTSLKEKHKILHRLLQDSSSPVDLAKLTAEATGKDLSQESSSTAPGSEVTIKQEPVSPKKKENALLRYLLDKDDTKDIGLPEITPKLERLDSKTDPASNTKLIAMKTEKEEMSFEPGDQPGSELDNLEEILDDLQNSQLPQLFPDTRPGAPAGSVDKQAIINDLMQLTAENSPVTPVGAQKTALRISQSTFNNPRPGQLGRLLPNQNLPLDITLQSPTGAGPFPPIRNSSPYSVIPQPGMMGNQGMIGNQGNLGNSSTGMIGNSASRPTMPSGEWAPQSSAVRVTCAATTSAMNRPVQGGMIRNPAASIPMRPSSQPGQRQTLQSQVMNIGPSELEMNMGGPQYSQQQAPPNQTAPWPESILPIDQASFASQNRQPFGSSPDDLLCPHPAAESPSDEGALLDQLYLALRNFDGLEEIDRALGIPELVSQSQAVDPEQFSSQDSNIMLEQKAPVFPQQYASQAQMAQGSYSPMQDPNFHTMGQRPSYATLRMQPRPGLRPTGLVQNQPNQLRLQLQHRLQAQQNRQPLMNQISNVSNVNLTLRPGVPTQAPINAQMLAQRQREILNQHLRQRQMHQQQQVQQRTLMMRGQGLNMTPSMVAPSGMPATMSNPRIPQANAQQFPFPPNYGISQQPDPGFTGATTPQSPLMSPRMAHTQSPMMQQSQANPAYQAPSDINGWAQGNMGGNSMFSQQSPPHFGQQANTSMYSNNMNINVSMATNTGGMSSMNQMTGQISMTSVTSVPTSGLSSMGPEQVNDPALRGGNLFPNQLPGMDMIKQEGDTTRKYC
Sequence of Peroxisome proliferator-activated receptor gamma/Nuclear receptor coactivator 3 (P37231 whole entry): as the sequence (P37231 whole entry) above
Sequence of Peroxisome proliferator-activated receptor gamma/Nuclear receptor coactivator 3 (Q9Y6Q9 whole entry, further chain): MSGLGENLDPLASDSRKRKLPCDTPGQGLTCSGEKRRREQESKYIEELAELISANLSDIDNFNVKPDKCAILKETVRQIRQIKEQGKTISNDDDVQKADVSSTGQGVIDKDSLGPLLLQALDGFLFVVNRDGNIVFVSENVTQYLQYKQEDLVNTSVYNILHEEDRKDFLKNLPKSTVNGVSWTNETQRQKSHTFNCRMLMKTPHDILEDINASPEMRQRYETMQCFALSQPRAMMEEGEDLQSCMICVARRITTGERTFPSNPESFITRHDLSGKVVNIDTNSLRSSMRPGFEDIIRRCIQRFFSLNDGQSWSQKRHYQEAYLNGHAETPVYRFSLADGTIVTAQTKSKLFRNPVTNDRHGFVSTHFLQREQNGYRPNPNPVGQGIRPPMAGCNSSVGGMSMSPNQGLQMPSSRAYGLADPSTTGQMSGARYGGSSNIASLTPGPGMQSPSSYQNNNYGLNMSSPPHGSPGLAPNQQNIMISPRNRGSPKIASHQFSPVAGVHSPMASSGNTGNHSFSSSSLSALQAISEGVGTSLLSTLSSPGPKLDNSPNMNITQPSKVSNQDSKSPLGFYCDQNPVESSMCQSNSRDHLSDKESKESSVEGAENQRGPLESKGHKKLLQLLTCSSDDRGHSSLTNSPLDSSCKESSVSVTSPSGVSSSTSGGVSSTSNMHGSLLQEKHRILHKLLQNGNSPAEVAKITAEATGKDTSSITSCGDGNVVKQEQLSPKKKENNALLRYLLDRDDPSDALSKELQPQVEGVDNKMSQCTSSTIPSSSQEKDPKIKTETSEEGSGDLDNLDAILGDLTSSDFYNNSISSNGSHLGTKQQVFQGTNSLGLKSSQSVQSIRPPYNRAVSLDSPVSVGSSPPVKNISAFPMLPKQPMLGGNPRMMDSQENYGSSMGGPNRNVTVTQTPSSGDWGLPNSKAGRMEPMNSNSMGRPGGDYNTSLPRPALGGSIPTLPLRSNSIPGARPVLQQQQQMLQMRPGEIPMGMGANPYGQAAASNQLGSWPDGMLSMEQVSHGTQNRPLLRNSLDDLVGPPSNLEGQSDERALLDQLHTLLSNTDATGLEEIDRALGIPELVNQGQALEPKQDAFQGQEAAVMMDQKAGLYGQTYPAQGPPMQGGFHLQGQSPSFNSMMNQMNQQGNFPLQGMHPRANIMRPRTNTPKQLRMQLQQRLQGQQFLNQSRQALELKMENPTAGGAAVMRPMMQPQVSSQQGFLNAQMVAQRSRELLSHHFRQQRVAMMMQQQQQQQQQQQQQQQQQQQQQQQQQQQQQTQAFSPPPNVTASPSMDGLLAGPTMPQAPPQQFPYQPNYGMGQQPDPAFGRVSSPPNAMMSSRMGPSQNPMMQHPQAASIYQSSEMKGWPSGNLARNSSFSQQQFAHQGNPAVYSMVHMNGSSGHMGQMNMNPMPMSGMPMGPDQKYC

## O=C(Nc1ccc(OCC(=O)N2CCC(Cc3ccccc3)CC2)cc1)c1ccco1
[1]
  EC50: 2.36 µM (active)
INS1
  AC50: 5.93 µM (active)

## COc1ccc(/C=C2/SC(=O)N(NS(=O)(=O)c3ccccc3)C2=S)cc1OC
[2]
  CC50: 31.5 µM (active)
Aminopeptidase N
  IC50: 30.5 µM (active)
cells
  IC50: 18.8 µM (active)

## Nc1ccc(-c2cc(C(=O)O)n[nH]2)cc1
[3]
  IC50: > 100 µM (not active)
[4]
  IC50: 8.69 µM (active)

## CS(=O)(=O)N(CC(=O)N/N=C/c1ccccc1C(=O)O)c1cccc(Cl)c1Cl
Coagulation factor XII
  IC50: > 50 µM (inactive)

## O=C(Nc1ccc(C(F)(F)F)cc1[N+](=O)[O-])O[C@H]1[C@H](Cc2ccccc2)NS(=O)(=O)[C@H]2C[C@@H]3C=C[C@]12O3
[2]
  CC50: 23 µM (active)
cells
  IC50: 24.6 µM (active)

## COc1ccc(Nc2nnc(SC(C(=O)Nc3cc(C)ccc3C)c3ccccc3)s2)cc1 (stereo unspecified)
Coagulation factor XII
  IC50: > 50 µM (inactive)

## CCN1C(=O)c2cccc3c(S(=O)(=O)NCC4CCCO4)ccc1c23 (stereo unspecified)
[5]
  IC50: > 80 µM (inactive)

## CCCCCCn1c(-c2ccco2)nc2oc3cc(OC)ccc3c(=O)c2c1=O
[5]
  IC50: > 80 µM (inactive)

## Cc1cccc(Nc2nc(-c3ccccc3)c(C(=O)Nc3cccnc3)s2)c1
[6]
  EC50: 7.34 µM (active)
[7]
  EC50: > 79.4 µM (not active)
[8]
  EC50: 7.24 µM (active)

## CN1CCN(c2ncnc3c2cnn3-c2ccc(Cl)cc2)CC1
[9]
  EC50: 0.55 µM (active)
HT-1080
  EC50: > 50 µM (not active)

## Cc1ccc(CCNC(=O)C[S+]([O-])Cc2nc(-c3cccc(C)c3)oc2C)cc1 (stereo unspecified)
[1]
  EC50: 4.04 µM (active)

## O=C(/C=C\Nc1ccccn1)c1ccc(Cl)cc1
[9]
  EC50: 2.45 µM (active)
HT-1080
  EC50: > 50 µM (not active)

## Cn1c(=O)cc(SCC(=O)Nc2ccccn2)c2ccccc21
[6]
  EC50: > 79.4 µM (inactive)
[7]
  EC50: > 79.4 µM (not active)
[8]
  EC50: > 79.4 µM (not active)

## Oc1cccc(-c2nc3ccccc3s2)c1
[9]
  EC50: 12.4 µM (active)
[10]
  EC50: 1.83 µM (active)
[11]
  EC50: 22.2 µM (active)
HT-1080
  EC50: > 50 µM (not active)
Prothrombin
  IC50: > 50 µM (not active)
[12]
  IC50: > 67.6 µM (inactive)

## CCOC(=O)c1[nH]nc2c1COc1ccccc1-2
[3]
  IC50: > 100 µM (not active)
[4]
  IC50: > 100 µM (inactive)

## O=C(Nc1nc(-c2ccc(Cl)s2)cs1)c1cccs1
[13]
  EC50: 34.3 µM (active)
[14]
  EC50: 15.1 µM (active)
H4
  EC50: 5.03 µM (active)
[15]
  EC50: 1.04 µM (active)
[16]
  EC50: 8.5 µM (active)
Coagulation factor XII
  IC50: 23.9 µM (active)
Protein skinhead-1
  IC50: 81.2 µM (inactive)

## CN(C)C1=C(Cl)C(=O)N(c2nnc(Cc3ccccc3)[nH]2)C1=O
[3]
  IC50: > 100 µM (not active)
[4]
  IC50: 4.49 µM (active)

## C/C(=N\NC(=O)c1ccc(CN2CCc3ccccc3C2)cc1)c1ccccc1O
[15]
  EC50: 1.06 µM (active)
[16]
  EC50: 3.88 µM (active)
[17]
  CC50: 15.3 µM (active)
[18]
  CC50: 10.7 µM (active)
[19]
  CC50: 13.9 µM (active)
